Measured values taken from patent publication US20200079793A1, “COMPOUNDS AND METHODS FOR MODULATING ADENOSINE A2B RECEPTOR AND ADENOSINE A2A RECEPTOR” (CORVUS PHARMACEUTICALS, INC., priority 2018, published 2020).

Tests used:
A1R = molecular target: T1, A1R (Homo sapiens, UniProt P30542); experiment: Activity assay of adenosine receptor modulators, A1R cAMP (Table 1); assay type: cell-based
T1 sequence (P30542 1-326): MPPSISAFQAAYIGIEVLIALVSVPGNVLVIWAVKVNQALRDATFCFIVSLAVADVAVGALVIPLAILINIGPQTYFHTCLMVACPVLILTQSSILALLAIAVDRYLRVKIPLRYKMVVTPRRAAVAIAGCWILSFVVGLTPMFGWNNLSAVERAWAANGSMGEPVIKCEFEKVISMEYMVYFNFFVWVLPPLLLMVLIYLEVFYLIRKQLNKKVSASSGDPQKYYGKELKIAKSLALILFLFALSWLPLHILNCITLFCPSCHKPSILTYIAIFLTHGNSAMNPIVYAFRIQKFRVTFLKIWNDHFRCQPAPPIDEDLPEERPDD
Experimental: (§1) Compounds (e.g., adenosine receptor modulators) were tested for its biological activity. The assay results in Table 1 indicate (+ means >1 μM; ++ means 100 nM to 1 μM; +++ means <100 nM).

A3R = molecular target: T2, A3R (Homo sapiens, UniProt P0DMS8); experiment: Activity assay of adenosine receptor modulators, A3R cAMP (Table 1); assay type: cell-based
T2 sequence (P0DMS8 1-318): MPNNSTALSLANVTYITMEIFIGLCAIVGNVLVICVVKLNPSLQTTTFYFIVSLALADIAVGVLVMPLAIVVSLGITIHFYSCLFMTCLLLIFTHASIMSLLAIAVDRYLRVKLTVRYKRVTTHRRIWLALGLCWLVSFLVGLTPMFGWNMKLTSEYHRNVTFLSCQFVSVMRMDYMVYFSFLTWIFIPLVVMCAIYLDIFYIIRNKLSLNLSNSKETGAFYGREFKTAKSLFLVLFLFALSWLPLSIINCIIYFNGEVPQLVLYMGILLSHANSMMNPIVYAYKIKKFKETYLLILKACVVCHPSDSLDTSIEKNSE
Experimental: as §1

Adenosine A2A Receptor = Adenosine A2A Receptor (Homo sapiens, UniProt P29274); experiment: Activity assay of adenosine receptor modulators, Adenosine A2A Receptor (Table 1); assay type: biochemical; settings: cAMP; read-out: A2AR cAMP IC50
Experimental: as §1

Adenosine A2B Receptor = molecular target: T3, Adenosine A2B Receptor (Homo sapiens, UniProt P29275); experiment: Activity assay of adenosine receptor modulators, Adenosine A2B Receptor (Table 1); assay type: biochemical; settings: cAMP; read-out: A2BR cAMP IC50
T3 sequence (P29275 1-332): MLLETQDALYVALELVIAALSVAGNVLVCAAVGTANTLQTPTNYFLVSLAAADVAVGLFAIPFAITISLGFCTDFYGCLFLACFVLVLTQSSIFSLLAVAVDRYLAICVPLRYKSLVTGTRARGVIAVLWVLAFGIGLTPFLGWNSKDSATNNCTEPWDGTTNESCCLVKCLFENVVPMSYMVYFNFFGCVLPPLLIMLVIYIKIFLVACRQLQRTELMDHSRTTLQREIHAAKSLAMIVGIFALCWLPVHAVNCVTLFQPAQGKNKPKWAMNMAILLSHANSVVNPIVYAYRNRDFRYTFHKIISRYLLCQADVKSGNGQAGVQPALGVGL
Experimental: as §1

Chain of Adenosine A2A Receptor (P29274 whole entry): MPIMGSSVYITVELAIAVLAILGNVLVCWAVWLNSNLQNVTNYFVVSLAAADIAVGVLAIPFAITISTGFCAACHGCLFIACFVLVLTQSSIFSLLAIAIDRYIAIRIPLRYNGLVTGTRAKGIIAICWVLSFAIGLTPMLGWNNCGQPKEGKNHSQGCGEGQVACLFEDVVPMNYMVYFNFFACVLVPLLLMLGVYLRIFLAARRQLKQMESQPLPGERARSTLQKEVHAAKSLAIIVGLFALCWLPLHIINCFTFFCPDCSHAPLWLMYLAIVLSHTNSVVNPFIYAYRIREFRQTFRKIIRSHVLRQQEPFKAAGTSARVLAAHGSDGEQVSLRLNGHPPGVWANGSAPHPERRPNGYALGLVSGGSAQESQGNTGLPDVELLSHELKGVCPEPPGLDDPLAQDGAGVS

Structure (SMILES) | IC50 (A1R) | IC50 (A3R) | IC50 (Adenosine A2A Receptor) | IC50 (Adenosine A2B Receptor)
CO[C@@H]1CCN(C(=O)c2nc(N[C@@H](C)c3cncc(F)c3)nc3nc(C)sc23)C1 [Example 40, (5-(((S)-1-(5-Fluoropyridin-3-yl)ethyl)amino)-2-methylthiazolo[4,5-d]pyrimidin-7-yl)((R)-3-methoxypyrrolidin-1-yl)methanone] | > 1000 nM | > 1000 nM | 100 to 1000 nM | < 100 nM
CO[C@H]1CCN(C(=O)c2nc(N[C@@H](C)c3cncc(F)c3)nc3nc(C)sc23)C1 [Example 41, (5-(((S)-1-(5-Fluoropyridin-3-yl)ethyl)amino)-2-methylthiazolo[4,5-d]pyrimidin-7-yl)((S)-3-methoxypyrrolidin-1-yl)methanone] | > 1000 nM | > 1000 nM | > 1000 nM | < 100 nM
COC[C@@H]1CCN(C(=O)c2nc(N[C@@H](C)c3cncc(F)c3)nc3nc(C)sc23)C1 [Example 47, (5-(((S)-1-(5-Fluoropyridin-3-yl)ethyl)amino)-2-methylthiazolo[4,5-d]pyrimidin-7-yl)((R)-3-(methoxymethyl)pyrrolidin-1-yl)methanone] | > 1000 nM | > 1000 nM | > 1000 nM | < 100 nM
COC[C@H]1CCN(C(=O)c2nc(N[C@@H](C)c3cncc(F)c3)nc3nc(C)sc23)C1 [Example 48, (5-(((S)-1-(5-Fluoropyridin-3-yl)ethyl)amino)-2-methylthiazolo[4,5-d]pyrimidin-7-yl)((S)-3-(methoxymethyl)pyrrolidin-1-yl)methanone] | > 1000 nM | > 1000 nM | 100 to 1000 nM | < 100 nM
Cc1nc2nc(N[C@@H](C)c3cncc(F)c3)nc(C(=O)N3CC[C@@H](CO)C3)c2s1 [Example 49, (5-(((S)-1-(5-Fluoropyridin-3-yl)ethyl)amino)-2-methylthiazolo[4,5-d]pyrimidin-7-yl)((R)-3-(hydroxymethyl)pyrrolidin-1-yl)methanone] | > 1000 nM | > 1000 nM | > 1000 nM | < 100 nM

Continued, values first:

IC50 (A1R) | IC50 (A3R) | IC50 (Adenosine A2A Receptor) | IC50 (Adenosine A2B Receptor) | Structure (SMILES)
> 1000 nM | > 1000 nM | 100 to 1000 nM | < 100 nM | Cc1nc2nc(N[C@@H](C)c3cncc(F)c3)nc(C(=O)N3CC[C@H](CO)C3)c2s1 [Example 50, (5-(((S)-1-(5-Fluoropyridin-3-yl)ethyl)amino)-2-methylthiazolo[4,5-d]pyrimidin-7-yl)((S)-3-(hydroxymethyl)pyrrolidin-1-yl)methanone]
> 1000 nM | > 1000 nM | 100 to 1000 nM | < 100 nM | COCC1CN(C(=O)c2nc(N[C@@H](C)c3cncc(F)c3)nc3nc(C)sc23)C1 [Example 51, (S)-(5-((1-(5-Fluoropyridin-3-yl)ethyl)amino)-2-methylthiazolo[4,5-d]pyrimidin-7-yl)(3-(methoxymethyl)azetidin-1-yl)methanone]
> 1000 nM | > 1000 nM | > 1000 nM | < 100 nM | CC(=O)NC[C@@H]1CCN(C(=O)c2nc(N[C@@H](C)c3cncc(F)c3)nc3nc(C)sc23)C1 [Example 52, N—(((S)-1-(5-(((S)-1-(5-Fluoropyridin-3-yl)ethyl)amino)-2-methylthiazolo[4,5-d]pyrimidine-7-carbonyl)pyrrolidin-3-yl)methyl)acetamide]
> 1000 nM | > 1000 nM | > 1000 nM | 100 to 1000 nM | CC(=O)NC[C@H]1CCN(C(=O)c2nc(N[C@@H](C)c3cncc(F)c3)nc3nc(C)sc23)C1 [Example 53, N—(((R)-1-(5-(((S)-1-(5-Fluoropyridin-3-yl)ethyl)amino)-2-methylthiazolo[4,5-d]pyrimidine-7-carbonyl)pyrrolidin-3-yl)methyl)acetamide]
> 1000 nM | < 100 nM | < 100 nM | < 100 nM | Cc1nc2nc(N[C@@H](C)c3cncc(F)c3)nc(C(=O)N3CC(NC(=O)C4(C)CC4)C3)c2s1 [Example 54, (S)—N-(1-(5-((1-(5-Fluoropyridin-3-yl)ethyl)amino)-2-methylthiazolo[4,5-d]pyrimidine-7-carbonyl)azetidin-3-yl)-1-methylcyclopropane-1-carboxamide]
